The record followed here is US9139587B2, “N1-pyrazolospiroketone acetyl-CoA carboxylase inhibitors” (Pfizer Inc., priority 2009, dated 2015).

Test [1] has as its target T1, recombinant human ACC1 (rhACC1) (Homo sapiens, UniProt Q13085, DEL44-44).
T1 construct: recombinant baculovirus containing full length human ACC1 cDNA; made in house; host or cells: SF9 insect cells (baculovirus)
Kind of test: recombinant hACC1 Transcreener assay (direct inhibition of ACC1 activity). Type of test: biochemical. To be noted: Transcreener ADP detection FP assay, 50 μM ATP, 30 μM acetyl-CoA, 120 min at 25° C. How it is done:
For example direct inhibition of ACC activity, for the compound of Formula (1) was determined using preparations of recombinant human ACC1 (rhACC1) and recombinant human ACC2 (rhACC2). Representative sequences of the recombinant human ACC1 and ACC2 that can be used in the assay are provided in FIG. 1 (SEQ ID NO. 1) and FIG. 2 (SEQ. ID NO. 2), respectively. Preparation of rhACC1. Two liters of SF9 cells, infected with recombinant baculovirus containing full length human ACC1 cDNA, were suspended in ice-cold lysis buffer (25 mM Tris, pH 7.5; 150 mM NaCl; 10% glycerol; 5 mM imidazole (EMD Bioscience; Gibbstown, N.J.); 2 mM TCEP (BioVectra; Charlottetown, Canada); Benzonase nuclease (10000 U/100 g cell paste; Novagen; Madison, Wis.); EDTA-free protease inhibitor cocktail (1 tab/50 mL; Roche Diagnostics; Mannheim, Germany). Cells were lysed by 3 cycles of freeze-thaw and centrifuged at 40,000×g for 40 minutes (4° C.). Supernatant was directly loaded onto a HisTrap FF crude column (GE Healthcare; Piscataway, N.J.) and eluted with an imidazole gradient up to 0.5 M over 20 column volumes (CV). ACC1-containing fractions were pooled and diluted 1:5 with 25 mM Tris, pH 7.5, 2 mM TCEP, 10% glycerol and direct loaded onto a CaptoQ (GE Healthcare) column and eluted with an NaCl gradient up to 1 M over 20 CV's. Phosphate groups were removed from purified ACC1 by incubation with lambda phosphatase (100 U/10 μM target protein; New England Biolabs; Beverly, Mass.) for 14 hours at 4° C.; okadaic acid was added (1 μM final concentration; Roche Diagnostics) to inhibit the phosphatase. Purified ACC1 was exchanged into 25 mM Tris, pH 7.5, 2 mM TCEP, 10% glycerol, 0.5 M NaCl by 6 hour dialysis at 4° C. Aliquots were prepared and frozen at −80° C. […] The final conditions for the assay were 50 mM HEPES, pH 7.2, 10 mM MgCl2, 7.5 mM tripotassium citrate, 2 mM DTT, 0.1 mg/mL BSA, 30 μM acetyl-CoA, 50 μM ATP, and 10 mM KHCO3 Typically, a 10 μl reaction was run for 120 min at 25° C., and 10 μl of Transcreener stop and detect buffer was added and the combination incubated at room temp for an additional 1 hour. The data was acquired on a Envision Fluorescence reader (Perkinelmer) using a 620 excitation Cy5 FP general dual mirror, 620 excitation Cy5 FP filter, 688 emission (S) and a 688 (P) emission filter.

For test [2], the target named is T2, recombinant human ACC2 (rhACC2) (Homo sapiens, UniProt O00763, V2141I).
T2 construct: a full length Cytomax clone of ACC2 was purchased from Cambridge Bioscience Limited; made in house; host or cells: CHO cells (tetracycline-induced, pcDNA5 FRT TO-TOPO)
Kind of test: recombinant hACC2 Transcreener assay (direct inhibition of ACC2 activity). Format: biochemical. The settings on record: Transcreener ADP detection FP assay, 50 μM ATP, 30 μM acetyl-CoA, 50 min at 25° C. On the procedure:
For example direct inhibition of ACC activity, for the compound of Formula (1) was determined using preparations of recombinant human ACC1 (rhACC1) and recombinant human ACC2 (rhACC2). Representative sequences of the recombinant human ACC1 and ACC2 that can be used in the assay are provided in FIG. 1 (SEQ ID NO. 1) and FIG. 2 (SEQ. ID NO. 2), respectively.
[3] Preparation of rhACC2. Human ACC2 inhibition was measured using purified recombinant human ACC2 (hrACC2). Briefly, a full length Cytomax clone of ACC2 was purchased from Cambridge Bioscience Limited and was sequenced and subcloned into PcDNA5 FRT TO-TOPO (Invitrogen, Carlsbad, Calif.). The ACC2 was expressed in CHO cells by tetracycline induction and harvested in 5 liters of DMEM/F12 with glutamine, biotin, hygromycin and blasticidin with 1 μg/mL tetracycline (Invitrogen, Carlsbad, Calif.). The conditioned medium containing ACC2 was then applied to a Softlink Soft Release Avidin column (Promega, Madison, Wis.) and eluted with 5 mM biotin. 4 mgs of ACC2 were eluted at a concentration of 0.05 mg/mL (determined by A280) with an estimated purity of 95% ([…]). The purified ACC2 was dialyzed in 50 mM Tris, 200 mM NaCl, 4 mM DTT, 2 mM EDTA, and 5% glycerol. The pooled protein was frozen and stored at −80° C., with no loss of activity upon thawing. For measurement of ACC2 activity and assessment of ACC2 inhibition, test compounds were dissolved in DMSO and added to the rhACC2 enzyme as a 5× stock with a final DMSO concentration of 1%.
[4] Measurement of human ACC2 inhibition. hACC2 was assayed in a Costar #3676 (Costar, Cambridge, Mass.) 384-well plate using the Transcreener ADP detection FP assay kit (Bellbrook Labs, Madison, Wisconsin) using the manufacturer's recommended conditions for a 50 uM ATP reaction. The final conditions for the assay were 50 mM HEPES, pH 7.2, 5 mM MgCl2, 5 mM tripotassium citrate, 2 mM DTT, 0.1 mg/mL BSA, 30 μM acetyl-CoA, 50 μM ATP, and 8 mM KHCO3 Typically, a 10 μl reaction was run for 50 min at 25° C., and 10 μl of Transcreener stop and detect buffer was added and the combination incubated at room temp for an additional 1 hour. The data was acquired on an Envision Fluorescence reader (Perkinelmer) using a 620 excitation Cy5 FP general dual mirror, 620 excitation Cy5 FP filter, 688 emission (S) and a 688 (P) emission filter.

SMILES strings stand for the structures.

T2 sequence (O00763 whole entry V2141I): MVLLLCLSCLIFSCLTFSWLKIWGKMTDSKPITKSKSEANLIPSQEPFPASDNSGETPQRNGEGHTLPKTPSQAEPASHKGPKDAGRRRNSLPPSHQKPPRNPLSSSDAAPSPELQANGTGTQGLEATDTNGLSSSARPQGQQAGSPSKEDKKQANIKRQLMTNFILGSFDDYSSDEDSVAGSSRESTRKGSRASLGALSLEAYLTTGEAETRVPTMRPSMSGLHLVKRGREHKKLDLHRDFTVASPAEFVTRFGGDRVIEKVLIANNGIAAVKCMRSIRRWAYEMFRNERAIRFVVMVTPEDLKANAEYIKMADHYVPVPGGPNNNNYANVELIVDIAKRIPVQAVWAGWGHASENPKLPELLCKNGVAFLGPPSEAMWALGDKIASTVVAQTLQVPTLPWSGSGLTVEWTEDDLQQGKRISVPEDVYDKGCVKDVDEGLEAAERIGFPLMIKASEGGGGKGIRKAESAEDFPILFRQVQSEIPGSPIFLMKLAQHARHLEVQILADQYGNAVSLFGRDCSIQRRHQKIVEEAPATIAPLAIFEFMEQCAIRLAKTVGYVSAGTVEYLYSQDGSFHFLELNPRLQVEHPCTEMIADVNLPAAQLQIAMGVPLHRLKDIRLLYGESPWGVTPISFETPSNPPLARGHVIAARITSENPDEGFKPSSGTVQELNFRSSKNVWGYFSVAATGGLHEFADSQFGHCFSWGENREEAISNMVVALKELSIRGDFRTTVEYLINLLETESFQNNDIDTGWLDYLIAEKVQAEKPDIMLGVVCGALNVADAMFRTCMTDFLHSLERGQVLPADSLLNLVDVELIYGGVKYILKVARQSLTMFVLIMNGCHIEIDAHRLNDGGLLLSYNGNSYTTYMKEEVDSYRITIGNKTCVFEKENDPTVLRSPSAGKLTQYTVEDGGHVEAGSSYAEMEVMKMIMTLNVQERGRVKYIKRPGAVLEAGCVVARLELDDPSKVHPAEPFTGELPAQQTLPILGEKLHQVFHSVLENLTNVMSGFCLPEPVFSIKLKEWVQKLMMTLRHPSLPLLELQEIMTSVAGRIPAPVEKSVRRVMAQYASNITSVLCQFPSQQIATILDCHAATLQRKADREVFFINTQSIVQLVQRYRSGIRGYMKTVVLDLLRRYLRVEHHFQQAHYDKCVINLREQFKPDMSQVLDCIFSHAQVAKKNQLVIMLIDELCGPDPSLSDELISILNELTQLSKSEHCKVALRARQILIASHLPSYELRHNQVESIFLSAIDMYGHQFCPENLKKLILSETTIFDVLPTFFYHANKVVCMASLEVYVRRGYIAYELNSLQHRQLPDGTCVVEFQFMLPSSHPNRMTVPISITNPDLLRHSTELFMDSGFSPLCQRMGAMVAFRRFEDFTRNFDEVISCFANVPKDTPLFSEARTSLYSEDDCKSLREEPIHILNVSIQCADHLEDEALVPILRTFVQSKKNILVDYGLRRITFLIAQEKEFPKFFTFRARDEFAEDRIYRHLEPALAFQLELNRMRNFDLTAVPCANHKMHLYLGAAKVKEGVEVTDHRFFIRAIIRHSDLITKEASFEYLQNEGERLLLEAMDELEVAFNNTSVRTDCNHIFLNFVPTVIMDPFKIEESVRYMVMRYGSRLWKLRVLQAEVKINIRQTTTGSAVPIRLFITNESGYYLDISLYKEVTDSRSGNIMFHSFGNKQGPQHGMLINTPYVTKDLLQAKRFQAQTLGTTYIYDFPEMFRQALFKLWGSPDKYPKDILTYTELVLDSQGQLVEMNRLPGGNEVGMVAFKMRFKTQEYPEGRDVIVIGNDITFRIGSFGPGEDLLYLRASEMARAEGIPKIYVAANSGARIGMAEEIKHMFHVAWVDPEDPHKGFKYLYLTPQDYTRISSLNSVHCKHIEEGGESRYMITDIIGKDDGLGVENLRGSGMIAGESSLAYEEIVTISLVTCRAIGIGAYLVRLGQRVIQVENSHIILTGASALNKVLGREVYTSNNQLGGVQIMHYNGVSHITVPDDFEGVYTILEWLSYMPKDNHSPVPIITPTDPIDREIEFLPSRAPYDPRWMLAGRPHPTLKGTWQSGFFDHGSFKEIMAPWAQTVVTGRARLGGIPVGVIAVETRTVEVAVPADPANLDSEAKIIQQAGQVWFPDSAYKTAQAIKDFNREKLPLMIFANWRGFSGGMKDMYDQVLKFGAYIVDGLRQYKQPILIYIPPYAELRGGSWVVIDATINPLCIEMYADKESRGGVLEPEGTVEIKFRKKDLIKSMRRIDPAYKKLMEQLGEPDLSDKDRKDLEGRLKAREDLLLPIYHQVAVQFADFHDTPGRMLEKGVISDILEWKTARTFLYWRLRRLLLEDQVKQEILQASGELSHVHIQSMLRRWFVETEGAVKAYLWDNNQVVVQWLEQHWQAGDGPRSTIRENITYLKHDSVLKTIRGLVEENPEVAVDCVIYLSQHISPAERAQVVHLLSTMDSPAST

As for `CC(C)(C)n1ncc2c1C(=O)CC1(CCN(C(=O)c3cnc4cc[nH]c4c3)CC1)C2` [Example 2A-24], the values for the 50% inhibitory concentration (IC50) in test [1] and in test [2] were 30.7 nM and 15.8 nM, respectively.
Taken in the same sequence, the figures for `CC(C)(C)n1ncc2c1C(=O)CC1(CCN(C(=O)c3ccc4[nH]cnc4c3)CC1)C2` [Example 2A-32] were 37 nM and 28.6 nM.
The like results for `COCCn1ncc2c1C(=O)CC1(CCN(C(=O)c3ccc(Cl)c(C)c3)CC1)C2` [Example 2A-8] were, in that order, 16000 nM and 4890 nM.
With `CC(C)(C)n1ncc2c1C(=O)CC1(CCN(C(=O)c3cc4cnccc4[nH]3)CC1)C2` [Example 11A-51], the IC50 in test [1] is 110 nM; in test [2], 108 nM.
Taken in the same sequence, the figures for `CC(C)(C)n1ncc2c1C(=O)CC1(CCN(C(=O)c3ccc(-c4ncc[nH]4)cc3)CC1)C2` [Example 11A-53] were 68.3 nM and 22.8 nM.
Taken in the same sequence, the figures for `CC(C)(C)n1ncc2c1C(=O)CC1(CCN(C(=O)c3cccc(-n4cccn4)c3)CC1)C2` [Example 11A-17] were 129 nM and 48.4 nM.
Consider `CC(C)n1ncc2c1C(=O)CC1(CCN(C(=O)c3cc4cnccc4nc3N)CC1)C2` [Example 2A-38], for which the IC50 was found to be 297 nM in test [1] and 99.7 nM in test [2].
For the compound `Cc1cc(C(=O)N2CCC3(CC2)CC(=O)c2c(cnn2C2CCOC2)C3)ccc1Cl` (stereo not drawn) [Example 1A-5], the IC50 in test [1] was 800 nM; in test [2], 127 nM.
Taken in the same sequence, the figures for `CC(C)n1ncc2c1C(=O)CC1(CCN(C(=O)c3cc(F)c4nc[nH]c4c3)CC1)C2` [Example 2A-36] were 123 nM and 29.6 nM.
The like results for `O=C1CC2(CCN(C(=O)c3ccc4[nH]ncc4c3)CC2)Cc2cnn(C3COC3)c21` [Example 9A-1, 1′-(1H-indazole-5-carbonyl)-1-(oxetan-3-yl)-4,6-dihydrospiro[indazole-5,4′-piperidin]-7(1H)-one] were, in that order, 704 nM and 264 nM.
Taken in the same sequence, the figures for `CC(C)n1ncc2c1C(=O)CC1(CCN(C(=O)c3ccc(N4CCOCC4)cn3)CC1)C2` [Example 11A-42] were 11700 nM and 2850 nM.
Consider `Cn1ncc2c(=O)c(C(=O)N3CCC4(CC3)CC(=O)c3c(cnn3C(C)(C)C)C4)c[nH]c21` [Example 11A-70], for which the IC50 in test [1] came out at 1860 nM; in test [2] it was 1040 nM.
As to `CC(C)n1ncc2c1C(=O)CC1(CCN(C(=O)c3cc(-c4cccnc4)[nH]n3)CC1)C2` [Example 11A-62], the figures for the concentration for half-maximal inhibition (IC50) in test [1] and in test [2] were 338 nM and 112 nM, respectively.
As for `CC(C)(C)n1ncc2c1C(=O)CC1(CCN(C(=O)c3cc(Cl)c4[nH]c(=O)[nH]c4c3)CC1)C2` [Example 2A-56], the half-inhibitory concentration (IC50) in test [1] was 31.2 nM; in test [2] it was 15.1 nM.
`CC(C)n1ncc2c1C(=O)CC1(CCN(C(=O)c3cccnc3C(N)=O)CC1)C2` [Example 11A-10]: the IC50 was found to be 6670 nM in test [1] and 789 nM in test [2].
The like results for `CC(C)(C)n1ncc2c1C(=O)CC1(CCN(C(=O)c3cnc4[nH]cnc4c3)CC1)C2` [Example 11A-39] were, in that order, 69 nM and 81.3 nM.
Taken in the same sequence, the figures for `CC(C)n1ncc2c1C(=O)CC1(CCN(C(=O)c3ccnc(-c4cc[nH]n4)c3)CC1)C2` [Example 11A-18] were 235 nM and 56.3 nM.
Taken in the same sequence, the figures for `CCn1ncc2c1C(=O)CC1(CCN(C(=O)c3ccc(Cl)c(C)c3)CC1)C2` [Example 2A-7] were 4340 nM and 965 nM.
With `CC(C)n1ncc2c1C(=O)CC1(CCN(C(=O)c3ccc(-n4ccnc4)cn3)CC1)C2` [Example 11A-63], the 50% inhibitory concentration (IC50) in test [1] was 8720 nM; in test [2], 2550 nM.
Taken in the same sequence, the figures for `Cc1ncc(C(=O)N2CCC3(CC2)CC(=O)c2c(cnn2C(C)C)C3)c(N)n1` [Example 2A-15] were 2030 nM and 775 nM.
On to `CC(C)n1ncc2c1C(=O)CC1(CCN(C(=O)c3cc4cnccc4[nH]3)CC1)C2` [Example 11A-56], for which the 50% inhibitory concentration (IC50) in test [1] turned out to be 1010 nM; in test [2], 359 nM.

One may read the IC50 as the point on the concentration scale where inhibition reaches its midpoint.
